# Reference: patent publication US20120178695A1, “METHODS OF TREATING NEUROPATHIC PAIN” (priority 2009, published 2012)
# Peptide text beside a SMILES is read from it.
# What was measured:
# [1] = system: rat formalin model of tonic pain; assay: rat formalin model of tonic pain; type: in vivo; details: for antinociceptive efficacy (percentage analgesia, late phase response): subcutaneous before formalin, second phase 10-40 min after formalin
# Experimental: FIG. 1 depicts the antinociceptive actions of GLYX-13 and gabapentin in the rat formalin model of tonic pain. Percentage analgesia is the percentage reduction (on the basis of the area under the curve for vehicle+formalin) in flinches in the late phase response (10-40 min) after intraplantar formalin injection ([…] of 5% formalin) compared with control values arbitrarily set at 100%. Drugs were administered subcutaneously, 15 min before formalin. N=8-10 per group. Mean±SEM.
# Antinociceptive actions of GLYX-13 were conducted in a rat formalin assay. Male Sprague-Dawley rats (125-170 g) were manually restrained for a subcutaneous injection of 1.5% formalin ([…] with a 26 ga needle) into the lateral footpad on the plantar surface of the left hind paw. After formalin injections, rats were placed in individual clear plastic cylinders of 30 cm diameter. Drug effects on the second phase of the pain response were monitored with observations conducted over the period between 10 and 40 min after formalin injection. Each group was composed of 10 animals. Vehicle, GLYX-13, or gabapentin was administered subcutaneously at the nape of the neck 10 min before the formalin injection. The time spent licking or elevating the injected limb was quantitated over this […] observation period.
# [2] = system: chronic constriction nerve injury model of neuropathic pain; assay: chronic constriction nerve injury model of neuropathic pain (Example 1); type: in vivo, rat; details: 5 mg/kg intravenously; 15 and 60 minutes after dosing
# Experimental: Next, GLYX-13 was evaluated in the chronic constriction nerve injury model of neuropathic pain; 5 mg/kg GLYX-13. Male Sprague-Dawley rats (200-225 g) were anesthetized with sodium pentobarbitone (6 mg/kg, intraperitoneally) and supplemented as necessary with isoflurane (1-3% in oxygen). Under asceptic conditions, the right sciatic nerve was exposed by blunt dissection at the mid thigh level and 1 cm freed of adhering connective tissue. Four chromic catgut (4.0) ligatures were tied to lightly constrict the nerve at 1 mm intervals. The overlying muscle and skin were sutured and, upon recovery from anesthesia, the rats returned to cages of soft padded bedding and to cages with sawdust bedding after 24 h. At days 5, 7, 9, and 11 post recovery, mechanical […] was assessed with Von Frey filaments (calibration numbers, 3.61-6.10) applied to the plantar surface of the hind paw from below. The filaments were evaluated in ascending order with the threshold for both the ipsilateral and contralateral paws being evaluated. The withdrawal threshold was defined as the lowest force of two or more consecutive Von Frey filaments to elicit a withdrawal reflex. […]
# The antinociceptive actions of vehicle or GLYX-13 (5 mg/kg) were evaluated at 15 and 60 minutes after dosing. […]
# [3] = ataxia on rotor-rod apparatus; type: in vivo; details: 30 min after 5, 50, or 500 mg/kg intravenous administration
# [4] = blood-brain barrier crossing
# [5] = system: acetic-acid induced writhing model in mice; assay: acetic-acid induced writhing model in mice; type: in vivo, mouse; details: male mice; 1, 5, and 10 mg/kg i.v., 5 min before i.p. 0.5% acetic acid
# Experimental: GLYX-13 was tested for antinociceptive activity in an acetic-acid induced writhing model in mice. Groups of 10 male mice were dosed i.v. with either saline or GLYX-13 at 1, 5, or 10 mg/kg. Five minutes later, each mouse was injected i.p. with a solution of 0.5% acetic acid in 0.9% saline and observed for writhing behavior for five minutes. The total number of writhes for each mouse was recorded and the mean number of writhes was compared between the control and GLYX-13 treated groups.
# [6] = system: radiant heat tail flick response; assay: radiant heat tail flick study in rats; type: in vivo, rat; details: male rats; 1, 5, and 10 mg/kg i.v., five minutes after administration
# Experimental: The ability of GLYX-13 to block the radiant heat tail flick response was determined in male rats. Groups of 10 male rats were administered either saline or GLYX-13 at 1, 5, or 10 mg/kg via i.v. injection, and five minutes following administration, the tail of each rat was exposed to a radiant heat stimulus. The time to elicit a characteristic tail flick was determined for each rat and the mean response time was determined for each group.
# [7] = system: Randall-Selitto paw pressure model; assay: Randall-Selitto paw pressure model in rats; type: in vivo, rat
# Experimental: The purpose of this study was to assess the potential effect of GLYX-13 upon the pain threshold in rats using the Randall-Selitto paw pressure model. Groups of 10 male rats (20 for saline vehicle control) were injected with a 20% suspension of yeast in the right hind paw and two hours later, each rat was intravenously administered either saline or GLYX-13 at 1, 5, or 10 mg/kg. The response to mechanical pain stimulus was determined for both the inflamed and non-inflamed paw using an analgesia meter. The amount of force required to elicit paw withdrawal was measured for each rat.
# [8] = system: rat model of peripheral neuropathy; assay: rat model of peripheral neuropathy, mechanical allodynia (Example 5); type: in vivo; details: for group mean withdrawal threshold, nerve-injured paw: approximately 60 min post-dose
# Experimental: FIG. 2 depicts the result of groups of eight male rats subjected to chronic constriction injury to the right hind limb. Following development of peripheral neuropathy, rats were administered GLYX-13, i.v. at 5, 10 or 20 mg/kg on days 12 and 13 post-operative (PO). Rats were tested for mechanical allodynia at 15 and 60 minutes post-dose on day 13 PO. The data represent mechanical allodynia readings at 15 minutes post-dose.
# The ability of GLYX-13 to attenuate neuropathic pain was assessed in a rat model of peripheral neuropathy. In this study, four groups of eight male rats were subjected to surgically-induced peripheral neuropathy. Peripheral neuropathy was induced in the right hind limb of male rats by loose ligation of the right sciatic nerve according to the method of Bennett and Xie (Bennett and Xie, 1988). After 8-10 days, a peripheral neuropathy had developed in the right hind limbs as determined by sensitivity to both mechanical allodynia and thermal hyperalgesia. This pilot study consisted of four groups of eight male rats. Days 12-13 post surgery, vehicle (0.9% saline) or GLYX-13 at 5, 10, and 20 mg/kg were administered, and rats were tested for sensitivity to both the thermal stimulus and mechanical allodynia. […] The results for GLYX-13 15 minutes post dose in this rodent neuropathy model are shown FIG. 2.
# [9] = system: rodent peripheral neuropathy model; assay: second peripheral neuropathy study, mechanical allodynia (Example 6); type: in vivo, rat; details: 5 mg/kg i.v.
# Experimental: FIG. 3 depicts the results of groups of 12 male rats subjected to chronic constriction injury to the right hind limb. Following development of peripheral neuropathy, rats were 5 administered GLYX-13, i.v. at 5, 10 or 20 mg/kg on days 12 and 13 post-operative (PO). Rats were tested for mechanical allodynia at 15 and 60 minutes post-dose on day 13 PO. The data represent mechanical allodynia readings at 60 minutes post-dose.
# A second peripheral neuropathy study was performed with GLYX-13 in male Sprague- Dawley rats. A peripheral mononeuropathy was induced in the right hind limb and rats were tested for development of mechanical allodynia. Rats that had positively developed neuropathy were administered vehicle (0.9% saline) or GLYX-13 i.v. at doses of 5, 10, or 20 mg/kg on days 12 and 13 PO. Testing for mechanical allodynia was performed at 15 and 60 minutes post-dose. […] In this rodent peripheral neuropathy model, i.v. administration of5 mg/kg GLYX-13 to male rats caused a significant reduction in the sensitivity of the nerve injured hind paw to mechanical allodynia at both 15 and 60 minutes post dose. There was no evidence of any systemic or contralateral effects in this study.
# [10] = system: intraplantar formalin pain, late phase; assay: formalin test 8 days after a single dose (Example 7); type: in vivo, rat; details: 1 dose 3 mg/kg i.v. 8 days before intraplantar formalin (1.5%)
# Experimental: FIG. 4 depicts mean±SEM percent analgesia in the late phase (30-50 min) in 3 month old Sprague-Dawley rats pretreated with GLYX-13 (3 mg/kg i.v.), ketamine (10 mg/kg i.v.) or saline vehicle injection (1 mg/ml i.v. tail vein) in freely behaving rats 8 days before left rear paw intraplantar injections (50 μl) of formalin (1.5%). Analgesia is % reduction in licking time, number of flinches, or total pain score (favoring+2×foot up+3×licking time). […] N=10-11 per group. * P<0.05 Fisher PLSD post hoc drug vs. all other groups.
# Freely behaving 3 month old Sprague Dawley rats were pretreated with GLYX -13 (3 mg/kg i.v.), ketamine (10 mg/kg i.v.) or saline vehicle injection (1 mg/ml i.v. tail vein) 8 days before left rear paw intraplantar injections (50 μl) of formalin (1.5%).
compound,measurement,setting,value
"C[C@@H](O)[C@H](N)C(=O)N1CCC[C@H]1C(=O)N1CCC[C@H]1C(=O)N[C@H](C(N)=O)[C@@H](C)O [GLYX-13, L-threonyl-L-prolyl-L-prolyl-L-threonine amide] (H-TPPT-NH2)",ataxia,"[1]; rat, in vivo, sc",not ataxic at any of the doses examined
same,"antinociceptive efficacy (percentage analgesia, late phase response)",[1],dose-dependent efficacy
same,antinociceptive action (mechanical allodynia),[2],antinociceptive at both time points
same,ataxia,[2],no evidence of ataxia
same,"ataxia, rotor-rod apparatus",[3],not found to induce ataxia
same,crossing of the blood-brain barrier,[4],readily crosses the blood-brain barrier in an active form
same,acetic acid induced writhing behavior,[5],did not block acetic acid induced writhing behavior
same,response time to a radiant heat stimulus (tail flick),[6],did not result in a change in the response time
same,pain threshold (force to elicit paw withdrawal),"[7]; male rats, yeast-inflamed paw, 1, 5, or 10 mg/kg i.v.",no significant effect on the pain threshold
same,pain threshold (force to elicit paw withdrawal),[7]; rats dosed with 5 and 10 mg/kg i.v.,"Slight, but not statistically significant, increases in the pain threshold"
same,"withdrawal threshold, nerve-injured paw","[8]; 10 mg/kg i.v., 15 minutes post dose",5.98 ± 2.25 g
same,"withdrawal threshold, nerve-injured paw","[8]; 10 mg/kg i.v., 60 minutes post dose",7.26 ± 2.19 g
same,responses of the uninjured (contralateral) hind paw,"[8]; 5, 10, and 20 mg/kg, any of the time points tested",No marked changes
same,"withdrawal threshold, nerve-injured paw",[8]; doses of 5 and 20 mg/kg,small but distinct increases in withdrawal threshold
same,"group mean withdrawal threshold, nerve-injured paw",[8]; high dose (20 mg/kg i.v.),2.08 ± 1.21 g
same,"group mean withdrawal threshold, nerve-injured paw",[8]; low dose group (5 mg/kg i.v.),5.04 ± 3.09 g
same,withdrawal threshold in the nerve injured hind paw to mechanical allodynia,"[8]; male rats, 5, 10, and 20 mg/kg",marked increase in the withdrawal threshold
same,contralateral effects,[9],no evidence of any contralateral effects
same,sensitivity of the nerve-injured paw to mechanical stimuli (Von Frey filaments),"[9]; free-base, approximately 15 and 60 min post dose",statistically significant reduction in the sensitivity
same,analgesia in the late phase (30-50 min) of the formalin test,[10],increased analgesia 8 days after administration
"NCC1(CC(=O)O)CCCCC1 [gabapentin, reference compound]","antinociceptive efficacy (percentage analgesia, late phase response)",[1],dose-dependent efficacy
same,ataxia,"[1]; subcutaneous, doses of the formalin study (data not shown)",ataxic at the highest dose
